Data: paper PMC12431657, “Discovery and mechanistic insights of dibenzoylmethane as a broad spectrum inhibitor of coronavirus” (PLOS Pathogens, 2025)
Several values for one entry are separate records, joined by “and”; a condition that tells them apart may be missing. Equal values may be shown once.

Key:
HCoV-OC43 [1] = experiment: Immunoplaque assay, viral titres of organs and tissues of infected mice; assay type: in vivo, BALB/c suckling mice
Method: Next, we characterized the therapeutic efficacy of the DBM in vivo. In this experiment, randomized 5–6-day-old suckling BALB/c mice were orally treated with DBM at concentrations of 500, 200, and 100 mpk 2 hours after being intranasally challenged with HCoV-OC43. Menstruum and VV116 were used as negative and positive controls, respectively. All the mice were sacrificed on Day 5 for organ and sample collection (Fig 4A). The body weight changes of the mice were continuously monitored during the trial. Infection with HCoV-OC43 led to body weight loss in the vehicle-treated mice on Day 5 (Fig 4B). […] The number of viral RNA copies from the brain, spinal cord, lungs, and kidneys were analysed via qRT-PCR, which targeted the HCoV-OC43 nucleocapsid gene sequence. On Day 5, the number of viral RNA copies in the vehicle-treated group reached approximately 10^12 copies in the brain, 10^9 copies in the spinal cord, 10^8 copies in the lungs, and 10^6 copies in the kidney (Fig 4C). In the mice treated with DBM at 500 mpk, the number of viral RNA copies within these organs and tissues was reduced by 1–3 logs compared with the vehicle-treated group. […] Sections of mouse brains, spinal cords, lungs, and kidneys were subjected to immunofluorescence staining with antibodies targeting HCoV-OC43 nucleocapsid proteins.
Fig 4 In vivo antiviral efficacy of DBM in 5-day-old BALB/c suckling mice infected with HCoV-OC43. A) Schematic of the experimental design for evaluating DBM in suckling mice. Each group consisted of 5-6 suckling mice. The schematic was created by the authors using Adobe Illustrator 2022. B) Body weight changes of mice during the experiment. Body weights were recorded daily and all mice were euthanised on the fifth day after infection. C) Viral RNA copies in the brains, spinal cords, lungs, and kidneys of mice collected on Day 5. After grinding and centrifuging the samples with DMEM, viral copies from the supernatants were tested by qRT-PCR. D) Viral titres in homogenised organs and tissues collected from mice on Day 5. E) Immunofluorescence staining of brain and lung sections from mice treated with different regimens. HCoV-OC43 nucleocapsid proteins were detected by immunofluorescence (green). Cell nuclei were stained with DAPI (blue). Data were statistically analyzed with Student’s T test. *: p ≤ 0.05, **: p ≤ 0.01, ***: p ≤ 0.001, ****: p ≤ 0.0001; ns, not significant. The experiments were repeated three times independently with similar results. […] No numeric values are printed in any panel, and nothing was read off the bars, points or curves.
RD cells were preseeded onto 24-well plates and incubated at 37 °C for 24 hours until they reached 90% confluence. The supernatants from the homogenized organs and tissues were serially diluted 10-fold in DMEM. Subsequently, 50 μL of each dilution was added to the wells. Following a 1-hour incubation at 37 °C, the inoculum was removed, and 200 μL of overlay medium (DMEM containing 2% FBS and 1.5% carboxymethyl cellulose) was added to the wells. Four days postinfection, the cells were fixed with 4% paraformaldehyde for 2 hours, followed by three washes with phosphate-buffered saline (PBS). The fixed cells were then permeabilized with 0.5% Triton X-100 for 30 minutes and blocked with 5% bovine serum albumin (BSA) for 30 minutes at room temperature. The cells were subsequently incubated with anti-HCoV-OC43 nucleocapsid protein rabbit serum (ABclonal, SA00001–2) as the primary antibody and HRP-conjugated anti-rabbit IgG (Proteintech) as the secondary antibody, followed by staining with a DAB staining kit (TIANGEN, PA110).

HCoV-OC43 [2] = experiment: Viral entry and internalization assay; assay type: cell-based; conditions: confocal microscopy
Method: To obtain further insight into the stage at which DBM inhibits the replication of HCoV-OC43 and other HCoVs, RD cells were incubated with compounds, including DBM, remdesivir (RDV), and chloroquine (CQ), at different stages of viral infection. Viral RNA from the supernatant was extracted and quantitatively analysed via qRT-PCR. […] For the viral binding assay, cells were cultured in the presence or absence of DBM at different concentrations for 1 hour before being infected with HCoV-OC43 at an MOI of 50, and then were placed on ice for 2 hours for the viral particles to bind to the membrane of the host cells, followed by washing with PBS. […] In addition to binding to receptors from host cells, the spike proteins of HCoV-OC43 could also trigger membrane fusion when HCoV-OC43 spike plasmid-transfected 293T cells were seeded together with RD cells as target cells, and the addition of DBM had no effect on this process (S5C Fig). […] To determine whether DBM influences viral release, we quantified viral RNA both intracellularly and in the supernatant.
The cells were seeded at a low density onto 35 mm glass bottom dishes with 10 mm microwells (Cellvis) and incubated overnight at 37 °C. […] The number of intracellular virus particles was quantified with ImageJ software.

IFN signalling = experiment: IFNB1 and IFN-stimulated gene expression (qPCR); assay type: cell-based

## O=C(CC(=O)c1ccccc1)c1ccccc1 [DBM, dibenzoylmethane]
HCoV-OC43 [1]; Brain, group G3 DIBEN100, individual mice
  Viral load in tissue (Fig4D): 2.4E+06 and 2.9E+06 and 1.6E+06 and 1.9E+06 and 2.5E+06 and 2.3E+06
HCoV-OC43 [1]; Brain, group G4 DIBEN200, individual mice
  Viral load in tissue (Fig4D): 2.4E+05 and 2.9E+05 and 1.6E+05 and 2.0E+05 and 2.5E+05
HCoV-OC43 [1]; Brain, group G5 DIBEN500, individual mice
  Viral load in tissue (Fig4D): 5.0E+01 and 0.0E+00 and 3.1E+03
HCoV-OC43 [1]; DBM 500 mpk
  viral titres of the organs and tissues: led to a reduction in viral loads
HCoV-OC43 [1]; Kidney, group G3 DIBEN100, individual mice
  Viral load in tissue (Fig4D): 229.9 and 104.0 and 219.4 and 123.5 and 219.8 and 790.8
HCoV-OC43 [1]; Kidney, group G4 DIBEN200, individual mice
  Viral load in tissue (Fig4D): 0.0
HCoV-OC43 [1]; Kidney, group G5 DIBEN500, individual mice
  Viral load in tissue (Fig4D): 84.6 and 0.0
HCoV-OC43 [1]; Lung, group G3 DIBEN100, individual mice
  Viral load in tissue (Fig4D): 0.0 and 160.4 and 76.7 and 2219.2 and 1455.2
HCoV-OC43 [1]; Lung, group G4 DIBEN200, individual mice
  Viral load in tissue (Fig4D): 275.5 and 0.0 and 394.7
HCoV-OC43 [1]; Lung, group G5 DIBEN500, individual mice
  Viral load in tissue (Fig4D): 0.0 and 290.3
HCoV-OC43 [1]; Spinal Cord, group G3 DIBEN100, individual mice
  Viral load in tissue (Fig4D): 1299.4 and 4131.1 and 125.4 and 477.6 and 568.4 and 1615.1
HCoV-OC43 [1]; Spinal Cord, group G4 DIBEN200, individual mice
  Viral load in tissue (Fig4D): 7747.0 and 4670.7 and 4797.6 and 4510.0 and 4954.8
HCoV-OC43 [1]; Spinal Cord, group G5 DIBEN500, individual mice
  Viral load in tissue (Fig4D): 0.0 and 113.9
HCoV-OC43 [2]
  viral internalisation: did not interfere
IFN signalling
  IFITM3 expression: 1.19 and 1.66 and 1.36
  IFNB1 expression: 6.09 and 4.34 and 4.64
  OAS1 expression: 1.74 and 2.26 and 1.65
  suppression of IFN signalling by caspase-6 and nucleocapsid proteins (IFNB1, ISGs): reversed the suppression of IFN signalling
IFN signalling; IFNB1 and ISG mRNA
  IFN signalling in HCoV-OC43-infected cells: enhanced IFN signalling
